Measurements published in the NIST ThermoML archive (doi:10.1007/s10765-010-0742-8).
“And” between values parts separate entries of the source, which are not always exact repeats. Equal values may be shown once.

Key:
[1] = mn = molality of the nth substance listed, in mol/kg; conditions: 101 kPa, Liquid, m1 = 0.1; for viscosity: Capillary tube (Ostwald / Ubbelohde) method; for mass density: Pycnometric method
[2] = refractive index (Na D-line) (dimensionless); mn = molality of the nth substance listed, in mol/kg; conditions: 101 kPa, Liquid, Standard Abbe refractometry, m1 = 0.1

O=C[C@H](O)[C@@H](O)[C@@H](O)[C@H](O)CO [(+)-galactose] + O
Conditions	mass density, [1]	refractive index, [2]	viscosity, [1] [mPa·s]
298.15 K	1003.9 kg/m3	1.3345	0.9284
303.15 K	1002.3 kg/m3 and 1002.4 kg/m3	1.334 and 1.3339	0.8345
308.15 K	1001 kg/m3	1.3335	0.7518
313.15 K	999.5 kg/m3	1.3329	0.6858
